Reference: the NIST ThermoML archive (doi:10.1016/j.jct.2010.07.002)

What was measured:
[1] = isobaric coefficient of expansion; conditions: 101.33 kPa, Liquid, Vibrating tube densimeter
[2] = 101.33 kPa, Liquid, Vibrating tube method
[3] = xn = mol fraction of the nth substance listed; conditions: 101.3 kPa, Liquid, Vibrating tube method

C[N+](=O)[O-] [nitromethane]
Conditions | isobaric coefficient of expansion, 278.15 K | isobaric coefficient of expansion, 288.15 K | isobaric coefficient of expansion, 298.15 K | isobaric coefficient of expansion, 308.15 K | isobaric coefficient of expansion, 318.15 K | mass density, 278.15 K [kg/m3] | mass density, 288.15 K [kg/m3] | mass density, 298.15 K [kg/m3] | mass density, 308.15 K [kg/m3] | mass density, 318.15 K [kg/m3]
[1] | 0.00116 1/K | 0.00118 1/K | 0.0012 1/K | 0.00122 1/K | 0.00125 1/K | – | – | – | – | –
[2] | – | – | – | – | – | 1158.25 | 1144.75 | 1131.18 | 1117.53 | 1103.79

C[N+](=O)[O-] [nitromethane] + O
mass density [kg/m3], [3]
Conditions | 278.15 K | 288.15 K | 298.15 K | 308.15 K | 318.15 K
x2 = 0.001777 | 1158.13 | 1144.64 | 1131.07 | 1117.42 | 1103.68
x2 = 0.002859 | 1158.06 | 1144.56 | 1130.99 | 1117.35 | 1103.61
x2 = 0.004913 | 1157.94 | 1144.44 | 1130.87 | 1117.22 | 1103.48
x2 = 0.00632 | 1157.85 | 1144.35 | 1130.78 | 1117.13 | 1103.39
x2 = 0.008036 | 1157.74 | 1144.24 | 1130.67 | 1117.02 | 1103.29
x2 = 0.009712 | 1157.64 | 1144.14 | 1130.57 | 1116.92 | 1103.18
x2 = 0.01188 | 1157.5 | 1144 | 1130.43 | 1116.79 | 1103.06
x2 = 0.01446 | 1157.34 | 1143.85 | 1130.28 | 1116.63 | 1102.9
x2 = 0.01696 | 1157.19 | 1143.7 | 1130.13 | 1116.49 | 1102.75
x2 = 0.02033 | 1156.99 | 1143.5 | 1129.93 | 1116.29 | 1102.56
x2 = 0.02492 | 1156.72 | 1143.23 | 1129.66 | 1116.02 | 1102.3
x2 = 0.02911 | 1156.49 | 1143 | 1129.43 | 1115.79 | 1102.07

[2H]O[2H] [water-d2] + C[N+](=O)[O-]
mass density [kg/m3], [3]
Conditions | 278.15 K | 288.15 K | 298.15 K | 308.15 K | 318.15 K
x1 = 0.001672 | 1158.21 | 1144.71 | 1131.14 | 1117.49 | 1103.75
x1 = 0.002547 | 1158.18 | 1144.68 | 1131.11 | 1117.46 | 1103.73
x1 = 0.004545 | 1158.14 | 1144.64 | 1131.07 | 1117.42 | 1103.67
x1 = 0.00623 | 1158.09 | 1144.59 | 1131.02 | 1117.37 | 1103.63
x1 = 0.008336 | 1158.04 | 1144.54 | 1130.97 | 1117.32 | 1103.58
x1 = 0.009484 | 1158.01 | 1144.51 | 1130.94 | 1117.3 | 1103.56
x1 = 0.01177 | 1157.96 | 1144.46 | 1130.89 | 1117.24 | 1103.5
x1 = 0.01408 | 1157.9 | 1144.4 | 1130.83 | 1117.19 | 1103.45
x1 = 0.01703 | 1157.83 | 1144.34 | 1130.77 | 1117.12 | 1103.38
x1 = 0.02007 | 1157.77 | 1144.27 | 1130.7 | 1117.06 | 1103.32
x1 = 0.02274 | 1157.71 | 1144.21 | 1130.64 | 1117 | 1103.26
x1 = 0.02464 | 1157.67 | 1144.17 | 1130.6 | 1116.97 | 1103.22
x1 = 0.02688 | 1157.62 | 1144.12 | 1130.55 | 1116.92 | 1103.17
